Laboratory results as given in US20120034226A1, “DIAGNOSTIC METHOD OF SKIN INFLAMMATORY DISEASE” (RIKEN, priority 2009, published 2012).

Key:
[1] = system: CD4-positive T cells derived from the mutant mouse; test: Cytokine-dependent cell proliferation activity (WST-8 assay); assay type: cell-based; details: cytokine/PMA-stimulated, 48 hours culture, Jak inhibitor I 3-100 nM, Jak3 inhibitor I 125-500 μM
Method: Cytokine-dependent cell proliferation activity was measured as described below. Single cells of the thymus in suspension were cultured at a density of 5×10^5 cells/well, and stimulated with PMA (10 ng/ml) [IL-2 (25 ng/ml), IL-4 (25 ng/ml), IL-6 (100 ng/ml), IL-7 (25 ng/ml), IL-12 (1-100 ng/ml) or IFN-γ (100 ng/ml) (Peprotech and R&D) was added]. Used in some experiments was the pan-Jak inhibitor Jak inhibitor I (3-100 nM, pyridone 6; Calbiochem) or Jak3 inhibitor I (125-500 μM, WHI-P131; Calbiochem). The cells were cultured for 48 hours, and their proliferation was measured by an assay using WST-8 (Nacalai Tesque) and soluble tetrazolium/formazan.

Jak1 = details: Kumamoto T. et al., Cancer Lett. 2009; cited from earlier work
EGF receptor (EGFR) = details: Kumamoto T. et al., Cancer Lett. 2009; cited from earlier work
ear skins of mutant mice [2] = test: Petrolatum coating of ear skin of mutant mice, development of dermatitis; assay type: in vivo, mouse; details: Jak inhibitor added to petrolatum
Method: (§1) A mouse model of atopic dermatitis was generated according to a detailed protocol reported [Masuya et al., Hum Mol Genet. 16, 2366-2375 (2007); http://www.brc.riken.jp/lab/gsc/mouse/]. C57BL/6J mice and C3H/HeJ mice were purchased from CLEA Japan. C57BL/6-kit^W-sh/W-sh mice were obtained from the RIKEN BioResource Center. C57BL/6-RAG1^−/− mice were allowed to propagate spontaneously. Severity scores were determined using an improved version of a reported scale [Matsuda et al., Int Immunol. 9, 461-466 (1997)]. The mice were reared in an SPF (specific pathogen-free) environment and subjected to experiments in compliance with the guidelines with the approval of RIKEN's Animal Experiment Committee.
To determine whether the destruction of the skin permeability barrier causes the development of dermatitis in the mutant mice, their ear skins were coated with petrolatum alone three times a week for 4 to 16 weeks.

[3] = system: pY-Jak1 and Ki67 in the ear skins of the mutant mice; test: Histoimmunological staining of differentiation marker molecules in ear skin after Jak inhibitor; assay type: in vivo, mouse; details: mutant mice treated with Jak inhibitor for 2 weeks from Week 4 of age
Method: (§2) Jak inhibitor I (150 μM, pyridone 6; Calbiochem) in suspension in acetone/olive oil (4:1), 10 μl, was topically applied to the ventral and dorsal parts of the ear skin of each mutant mouse three times a week, starting at 4 weeks after birth.
For analysis by immunofluorescence, frozen ear tissue specimens were fixed and stained using an antibody against pY-Jak1 (Cell Signaling), an antibody against Ki67 (Abcam), and an antibody against K6, K14 or K10 (Covance). Next, samples were incubated with an FITC- or Cy3-conjugated goat anti-rabbit IgG secondary antibody (Zymed). The slides were further counter-stained with hematoxylin or DAPI (Vector Laboratories).
Since some differentiation marker molecules were abnormally expressed in the epidermal layer, how the expression of those differentiation marker molecules changed with inhibition of Jak1 activity with a Jak inhibitor in mutant mice was examined by histoimmunological staining (FIG. 5c). By inhibiting Jak1 activity, the expression of pY-Jak1 and the expression of Ki67 in the ear skins of the mutant mice could be reduced. In contrast, in the mice receiving the solvent alone, Jak1 and Ki67 were activated in excess. […] In the ear skins of mice treated with acetone-olive oil alone, all markers were expressed at higher levels than in the skins of non-treated mice.

ear skins of mutant mice [4] = test: Topical application of Jak inhibitor to ear skin of mutant mice, development of dermatitis; assay type: in vivo, mouse
Method: as §1, §2
The above-described Example has shown that dermatitis in the mutant mice is caused by excess activation of Jak1 and resulting defect of the skin barrier. To verify this hypothesis, a Jak inhibitor was coated on the ear skins of mutant mice at 4 weeks after birth and their litter mates. To allow the inhibitor to deeply penetrate the epidermal layer, a combination of acetone and olive oil was used as the solvent for the inhibitor. In fact, this solvent itself was harmful to the formation of the epidermal barrier; the development of dermatitis in the mutant mice was promoted by administering this solvent.

With `COc1cc2ncnc(Nc3ccc(O)cc3)c2cc1OC` [WHI-P131] the “inhibition of accentuated (excess) proliferation of lymphocytes” value (“inhibition of accentuated” for short) [1] was “not” and the “inhibition of accentuated” value ([1]; listed as Jak 3 inhibitor I) was “lack of proliferation inhibition”.
In the case of `O=c1c(O)c(-c2cc(O)c(O)c(O)c2)oc2cc(O)cc(O)c12` [myricetin, 3,3′,4′,5,5′,7-hexahydroxyflavone], the “phosphorylation of Jak1” value (Jak1) is given as “inhibit” and the “self-phosphorylation of EGF receptor (EGFR)” value (EGF receptor (EGFR)) is given as “increase”.
With `CC(C)(C)c1nc2c3cc[nH]c(=O)c3c3cc(F)ccc3c2[nH]1` [pyridone 6] the “inhibition of accentuated” value [1] was “dose-dependently inhibited”, the “inhibition of accentuated” value ([1]; listed as Jak inhibitor I) was “inhibited dose-dependently” and the “additive effect on suppression of development of the illness” value (ear skins of mutant mice [2]) was “no additive effect”. The “expression of Ki67 in ear skin” value [3] was “reduced”, the “expression of pY-Jak1 in ear skin” value [3] was “reduced” and the “delay of development of dermatitis compared with solvent alone” value (ear skins of mutant mice [4]; 150 μM in acetone/olive oil, 10 μl topically on ear skin three times a week from 4 weeks after birth) was 1 week. The “clinical symptoms compared with solvent alone” value (ear skins of mutant mice [4]; 150 μM in acetone/olive oil, topical on ear skin three times a week from 4 weeks after birth) was “less severe clinical symptoms”, the “development of dermatitis (in words)” value (ear skins of mutant mice [4]; Jak inhibitor applied to the skin, FIG. 5) was “suppressed” and the “progression of the illness after development of dermatitis” value (ear skins of mutant mice [4]; coating with the Jak inhibitor on ear skin) was “suppressed the progression of the illness”.
